The source of these data is PMC5218480 (PLoS ONE, 2017).

Each structure is given as a SMILES string.

The test has as its system MV-4-11 cells. In words: Gene expression microarray analysis (Affymetrix PrimeView) and GSEA. Format: cell-based, human. The arrangement: RFU PODN (11730768_x_at) / Fold change /veh PODN (11730768_x_at) / RFU LINC00158 (11744669_a_at) / Fold change /veh LINC00158 (11744669_a_at) / RFU DUSP10 (11751237_a_at) / Fold change /veh DUSP10 (11751237_a_at) / RFU ID3 (11757404_x_at) / Fold change /veh ID3 (11757404_x_at) / RFU PLEKHG5 (11737974_s_at) / Fold change /veh PLEKHG5 (11737974_s_at) / RFU LRRC4B (11730491_at) / Fold change /veh LRRC4B (11730491_at) / RFU GIMAP4 (11747438_a_at) / Fold change /veh GIMAP4 (11747438_a_at) / RFU KRT8 (11758183_x_at) / Fold change /veh KRT8 (11758183_x_at) / RFU CNN1 (11734310_a_at) / Fold change /veh CNN1 (11734310_a_at) / RFU VPS37D (11726825_at) / Fold change /veh VPS37D (11726825_at) / RFU C10orf10 (11716522_x_at) / Fold change /veh C10orf10 (11716522_x_at) / RFU KIR2DL2 /// KIR2DL4 /// KIR2DL5A /// KIR2DL5B /// KIR2DS1 /// KIR2DS2 /// KIR2DS3 /// KIR2DS4 /// KIR3DL3 /// KIR3DL3 /// KIR3DS1 (11738374_at) / Fold change /veh KIR2DL2 /// KIR2DL4 /// KIR2DL5A /// KIR2DL5B /// KIR2DS1 /// KIR2DS2 /// KIR2DS3 /// KIR2DS4 /// KIR3DL3 /// KIR3DL3 /// KIR3DS1 (11738374_at) / RFU C1QL1 (11718748_at) / Fold change /veh C1QL1 (11718748_at) / RFU TMPRSS4 (11747572_a_at) / Fold change /veh TMPRSS4 (11747572_a_at) / RFU HAMP (11756126_x_at) / Fold change /veh HAMP (11756126_x_at) / RFU RNFT2 (11725882_a_at) / Fold change /veh RNFT2 (11725882_a_at) / RFU NR4A2 (11747474_a_at) / Fold change /veh NR4A2 (11747474_a_at) / RFU ABCC12 (11746883_a_at) / Fold change /veh ABCC12 (11746883_a_at) / RFU TMEM136 (11760407_x_at) / Fold change /veh TMEM136 (11760407_x_at) / RFU CLDN22 /// WWC2 (11732394_at) / Fold change /veh CLDN22 /// WWC2 (11732394_at) / RFU HLA-DPB1 (11760878_x_at) / Fold change /veh HLA-DPB1 (11760878_x_at) / RFU SPINT1 (11716480_a_at) / Fold change /veh SPINT1 (11716480_a_at) / RFU GAP43 (11754022_s_at) / Fold change /veh GAP43 (11754022_s_at) / RFU A4GNT (11735810_at) / Fold change /veh A4GNT (11735810_at) / RFU PRB3 (11715151_x_at) / Fold change /veh PRB3 (11715151_x_at) / RFU TUBB4B (11761932_at) / Fold change /veh TUBB4B (11761932_at) / RFU CAPN14 (11732068_a_at) / Fold change /veh CAPN14 (11732068_a_at) / RFU TMCC2 (11721928_a_at) / Fold change /veh TMCC2 (11721928_a_at) / RFU IRGQ (11745062_a_at) / Fold change /veh IRGQ (11745062_a_at) / RFU FAM174B (11720279_a_at) / Fold change /veh FAM174B (11720279_a_at) / RFU TMPRSS4 (11748680_a_at) / Fold change /veh TMPRSS4 (11748680_a_at) / RFU FAM212B (11763350_a_at) / Fold change /veh FAM212B (11763350_a_at) / RFU PLEKHG5 (11743358_a_at) / Fold change /veh PLEKHG5 (11743358_a_at) / RFU ZSCAN30 (11745921_a_at) / Fold change /veh ZSCAN30 (11745921_a_at) / RFU CMKLR1 (11741424_a_at) / Fold change /veh CMKLR1 (11741424_a_at) / RFU LOC101060620 /// MAPK8IP1 (11723275_at) / Fold change /veh LOC101060620 /// MAPK8IP1 (11723275_at) / RFU SPTSSB (11747773_x_at) / Fold change /veh SPTSSB (11747773_x_at) / RFU PRSS12 (11739890_at) / Fold change /veh PRSS12 (11739890_at) / RFU BIN1 (11741810_x_at) / Fold change /veh BIN1 (11741810_x_at) / RFU WNT11 (11732464_a_at) / Fold change /veh WNT11 (11732464_a_at) / RFU C10orf10 (11716521_a_at) / Fold change /veh C10orf10 (11716521_a_at) / RFU C5orf56 (11738089_at) / Fold change /veh C5orf56 (11738089_at) / RFU CYB561 (11721691_x_at) / Fold change /veh CYB561 (11721691_x_at) / RFU ANKRD19P (11752326_a_at) / Fold change /veh ANKRD19P (11752326_a_at) / RFU OR2T12 /// OR2T33 /// OR2T8 (11738714_s_at) / Fold change /veh OR2T12 /// OR2T33 /// OR2T8 (11738714_s_at) / RFU VCAN (11748164_a_at) / Fold change /veh VCAN (11748164_a_at) / RFU JSRP1 (11732532_at) / Fold change /veh JSRP1 (11732532_at) / RFU KRTAP10-11 (11738290_x_at) / Fold change /veh KRTAP10-11 (11738290_x_at) / RFU MYO3A (11730013_a_at) / Fold change /veh MYO3A (11730013_a_at) / RFU EBF3 (11725865_a_at) / Fold change /veh EBF3 (11725865_a_at) / RFU CAMK2N1 (11719241_x_at) / Fold change /veh CAMK2N1 (11719241_x_at) / RFU C5orf56 (11738088_a_at) / Fold change /veh C5orf56 (11738088_a_at) / RFU OLFML3 (11715873_a_at) / Fold change /veh OLFML3 (11715873_a_at) / RFU LOC100653217 /// NTM (11731650_a_at) / Fold change /veh LOC100653217 /// NTM (11731650_a_at) / RFU MAPK11 (11762145_a_at) / Fold change /veh MAPK11 (11762145_a_at) / RFU FIZ1 (11724087_x_at) / Fold change /veh FIZ1 (11724087_x_at) / RFU OASL (11726364_x_at) / Fold change /veh OASL (11726364_x_at) / RFU SOX15 (11748057_x_at) / Fold change /veh SOX15 (11748057_x_at) / RFU CD79A (11719716_a_at) / Fold change /veh CD79A (11719716_a_at) / RFU HIST1H1D (11736915_at) / Fold change /veh HIST1H1D (11736915_at) / RFU CASKIN2 (11723855_a_at) / Fold change /veh CASKIN2 (11723855_a_at) / RFU LOC730098 (11760151_x_at) / Fold change /veh LOC730098 (11760151_x_at) / RFU OR4N2 (11742367_at) / Fold change /veh OR4N2 (11742367_at) / RFU PRRT2 (11749266_a_at) / Fold change /veh PRRT2 (11749266_a_at) / RFU SNX32 (11753110_a_at) / Fold change /veh SNX32 (11753110_a_at) / RFU CDHR5 (11726645_a_at) / Fold change /veh CDHR5 (11726645_a_at) / RFU RCAN1 (11760418_a_at) / Fold change /veh RCAN1 (11760418_a_at) / RFU FAM167A (11723789_a_at) / Fold change /veh FAM167A (11723789_a_at) / RFU FAM26E (11764081_at) / Fold change /veh FAM26E (11764081_at) / RFU ISYNA1 (11749810_s_at) / Fold change /veh ISYNA1 (11749810_s_at) / RFU ACY1 (11761880_at) / Fold change /veh ACY1 (11761880_at) / RFU 11764098_at / Fold change /veh 11764098_at / RFU SAMD14 (11745864_x_at) / Fold change /veh SAMD14 (11745864_x_at) / RFU NPB (11741838_a_at) / Fold change /veh NPB (11741838_a_at) / RFU TMPRSS6 (11731388_a_at) / Fold change /veh TMPRSS6 (11731388_a_at) / RFU KRTAP10-2 (11738614_at) / Fold change /veh KRTAP10-2 (11738614_at) / RFU ARHGAP8 /// PRR5-ARHGAP8 (11727945_x_at) / Fold change /veh ARHGAP8 /// PRR5-ARHGAP8 (11727945_x_at) / RFU KRTAP5-7 /// NADSYN1 (11734609_at) / Fold change /veh KRTAP5-7 /// NADSYN1 (11734609_at) / RFU RASL12 (11751679_a_at) / Fold change /veh RASL12 (11751679_a_at) / RFU CDKN2B (11736163_a_at) / Fold change /veh CDKN2B (11736163_a_at) / RFU PRF1 (11729649_at) / Fold change /veh PRF1 (11729649_at) / RFU, ZNF638 /// ZNF638-IT1 / Fold change vs veh, ZNF638 /// ZNF638-IT1 / RFU, PANK3 / Fold change vs veh, PANK3 / RFU, SH3YL1 / Fold change vs veh, SH3YL1 / RFU, ZEB2 / Fold change vs veh, ZEB2 / RFU, NRIP1 / Fold change vs veh, NRIP1 / RFU, PTTG1IP / Fold change vs veh, PTTG1IP / RFU, CAPN2 / Fold change vs veh, CAPN2 / RFU, MED14 / Fold change vs veh, MED14 / RFU, SNORA58 / Fold change vs veh, SNORA58 / RFU, C1orf63 / Fold change vs veh, C1orf63 / RFU, LRRFIP1 / Fold change vs veh, LRRFIP1 / RFU, NDUFAF7 / Fold change vs veh, NDUFAF7 / RFU, SLC12A2 / Fold change vs veh, SLC12A2 / RFU, IBTK / Fold change vs veh, IBTK / RFU, ESF1 / Fold change vs veh, ESF1 / Fold change vs veh, TMEM50B / RFU, TAOK1 / Fold change vs veh, TAOK1 / RFU, ACBD3 / Fold change vs veh, ACBD3 / RFU, TMA16 / Fold change vs veh, TMA16 / RFU, RWDD3 / Fold change vs veh, RWDD3 / RFU, BCAT1 / Fold change vs veh, BCAT1 / RFU, EDEM3 / Fold change vs veh, EDEM3 / RFU, TMEM33 / Fold change vs veh, TMEM33 / RFU, WDR75 / Fold change vs veh, WDR75 / RFU, AHCTF1 / Fold change vs veh, AHCTF1 / RFU, TFRC / Fold change vs veh, TFRC / RFU, ZDHHC17 / Fold change vs veh, ZDHHC17 / RFU, NOM1 / Fold change vs veh, NOM1 / RFU, ARL8B / Fold change vs veh, ARL8B / RFU, ZBTB11 / Fold change vs veh, ZBTB11 / RFU, TAMM41 / Fold change vs veh, TAMM41 / RFU, KIAA1704 /// LOC100996395 / Fold change vs veh, KIAA1704 /// LOC100996395 / RFU, ING1 / Fold change vs veh, ING1 / RFU, TRMT61B / Fold change vs veh, TRMT61B / RFU, FUBP3 / Fold change vs veh, FUBP3 / RFU, TP53 / Fold change vs veh, TP53 / RFU, TNKS2 / Fold change vs veh, TNKS2 / RFU, ZFP14 / Fold change vs veh, ZFP14 / RFU, ACTR2 / Fold change vs veh, ACTR2 / RFU, PPP3R1 / Fold change vs veh, PPP3R1 / RFU, PIK3R1 / Fold change vs veh, PIK3R1 / RFU, HNRNPA1 / Fold change vs veh, HNRNPA1 / RFU, RNF170 / Fold change vs veh, RNF170 / RFU, ZNF28 / Fold change vs veh, ZNF28 / RFU, RNGTT / Fold change vs veh, RNGTT / RFU, OGT / Fold change vs veh, OGT / RFU, BRD1 / Fold change vs veh, BRD1 / RFU, MARS / Fold change vs veh, MARS / RFU, ZNF655 / Fold change vs veh, ZNF655 / RFU, FAHD1 / Fold change vs veh, FAHD1 / RFU, BDP1 / Fold change vs veh, BDP1 / RFU, LRRCC1 / Fold change vs veh, LRRCC1 / RFU, ARID1A / Fold change vs veh, ARID1A / RFU, ZNF146 / Fold change vs veh, ZNF146 / RFU, ZNF330 / Fold change vs veh, ZNF330 / RFU, GPN3 / Fold change vs veh, GPN3 / RFU, C9orf123 / Fold change vs veh, C9orf123 / RFU, N4BP2L2 / Fold change vs veh, N4BP2L2 / RFU, ARFIP1 / Fold change vs veh, ARFIP1 / RFU, FAM179B / Fold change vs veh, FAM179B / RFU, BCL10 / Fold change vs veh, BCL10 / RFU, UHRF1BP1L / Fold change vs veh, UHRF1BP1L / RFU, BET1 / Fold change vs veh, BET1 / RFU, CNOT2 / Fold change vs veh, CNOT2 / RFU, ZNF268 / Fold change vs veh, ZNF268 / Fold change vs veh, ZNF507 / RFU, DGCR2 / Fold change vs veh, DGCR2 / RFU, WDSUB1 / Fold change vs veh, WDSUB1 / Fold change vs veh, HSP90B1 /// MIR3652 / RFU, ADSS / Fold change vs veh, ADSS / RFU, GK / Fold change vs veh, GK / RFU, ZNF148 / Fold change vs veh, ZNF148 / RFU, TAF9 / Fold change vs veh, TAF9 / RFU, SLC1A5 / Fold change vs veh, SLC1A5 / RFU, SLMO2 / Fold change vs veh, SLMO2 / RFU, ABCC4 / Fold change vs veh, ABCC4 / RFU, LOC101060439 /// RAP1B / Fold change vs veh, LOC101060439 /// RAP1B / RFU, RFX7 / Fold change vs veh, RFX7 / RFU, GTPBP10 / Fold change vs veh, GTPBP10 / RFU, CNEP1R1 / Fold change vs veh, CNEP1R1 / RFU, BIVM-ERCC5 /// ERCC5 / Fold change vs veh, BIVM-ERCC5 /// ERCC5 / RFU, ILF3 / Fold change vs veh, ILF3 / RFU 11762660_at / Fold change /veh 11762660_at / RFU VCAN (11757783_s_at) / Fold change /veh VCAN (11757783_s_at) / RFU DDX43 (11728927_at) / Fold change /veh DDX43 (11728927_at) / RFU KRT8 (11758188_x_at) / Fold change /veh KRT8 (11758188_x_at) / RFU NKD1 (11759106_at) / Fold change /veh NKD1 (11759106_at) / RFU SRD5A1 (11742802_a_at) / Fold change /veh SRD5A1 (11742802_a_at) / RFU TPSAB1 /// TPSB2 (11721975_s_at) / Fold change /veh TPSAB1 /// TPSB2 (11721975_s_at) / RFU GSTM3 (11746129_a_at) / Fold change /veh GSTM3 (11746129_a_at) / RFU IL23R (11737362_x_at) / Fold change /veh IL23R (11737362_x_at) / RFU TMEM51 (11727254_a_at) / Fold change /veh TMEM51 (11727254_a_at) / RFU PIWIL2 (11732686_x_at) / Fold change /veh PIWIL2 (11732686_x_at) / RFU ORM1 (11744905_x_at) / Fold change /veh ORM1 (11744905_x_at) / RFU CCDC152 (11743942_at) / Fold change /veh CCDC152 (11743942_at) / RFU ECM1 (11717891_a_at) / Fold change /veh ECM1 (11717891_a_at) / RFU IL23R (11748794_a_at) / Fold change /veh IL23R (11748794_a_at) / RFU TNFAIP8L3 (11732012_x_at) / Fold change /veh TNFAIP8L3 (11732012_x_at) / RFU MBOAT4 (11741988_at) / Fold change /veh MBOAT4 (11741988_at) / RFU 11764193_at / Fold change /veh 11764193_at / RFU TMEM53 (11763286_at) / Fold change /veh TMEM53 (11763286_at) / RFU MAGEB2 (11727129_at) / Fold change /veh MAGEB2 (11727129_at) / RFU TMEM200A (11744735_a_at) / Fold change /veh TMEM200A (11744735_a_at) / RFU CCDC152 (11751479_a_at) / Fold change /veh CCDC152 (11751479_a_at) / RFU FAM211A (11726209_a_at) / Fold change /veh FAM211A (11726209_a_at) / RFU RGS16 (11746705_a_at) / Fold change /veh RGS16 (11746705_a_at) / RFU VCAN (11755009_s_at) / Fold change /veh VCAN (11755009_s_at) / RFU RHOB (11743442_s_at) / Fold change /veh RHOB (11743442_s_at) / RFU RGS16 (11720943_a_at) / Fold change /veh RGS16 (11720943_a_at) / RFU RGS16 (11720944_at) / Fold change /veh RGS16 (11720944_at) / RFU, VPS4B / Fold change vs veh, VPS4B / RFU, CREB1 / Fold change vs veh, CREB1 / RFU, DNAJC13 / Fold change vs veh, DNAJC13 / RFU, GNAQ / Fold change vs veh, GNAQ / RFU, CDK5R1 / Fold change vs veh, CDK5R1 / RFU, ZRANB3 / Fold change vs veh, ZRANB3 / RFU, CUL4A / Fold change vs veh, CUL4A / RFU, CCNY / Fold change vs veh, CCNY / RFU, UFL1 / Fold change vs veh, UFL1 / RFU, COG3 / Fold change vs veh, COG3 / RFU, DIAPH2 / Fold change vs veh, DIAPH2 / RFU, SKA2 / Fold change vs veh, SKA2 / RFU, AFF3 / Fold change vs veh, AFF3 / RFU, LMF1 / Fold change vs veh, LMF1 / RFU, IPO11 / Fold change vs veh, IPO11 / RFU, DFFB / Fold change vs veh, DFFB / RFU, FOXP1 / Fold change vs veh, FOXP1 / RFU, CARD8 / Fold change vs veh, CARD8 / RFU, STRN3 / Fold change vs veh, STRN3 / RFU, ADK / Fold change vs veh, ADK / RFU, RASSF2 / Fold change vs veh, RASSF2 / RFU, WIPF1 / Fold change vs veh, WIPF1 / RFU, LARP1B / Fold change vs veh, LARP1B / RFU, RASA1 / Fold change vs veh, RASA1 / RFU, RB1 / Fold change vs veh, RB1 / RFU, PPFIA1 / Fold change vs veh, PPFIA1 / RFU, MAT2A / Fold change vs veh, MAT2A / RFU, CCT5 / Fold change vs veh, CCT5 / RFU, WDR92 / Fold change vs veh, WDR92 / RFU, CUX1 / Fold change vs veh, CUX1 / RFU, TTC7A / Fold change vs veh, TTC7A / RFU, TMEM135 / Fold change vs veh, TMEM135 / RFU, DEPTOR / Fold change vs veh, DEPTOR / RFU, CPM / Fold change vs veh, CPM / RFU, DNAJB6 / Fold change vs veh, DNAJB6 / RFU, CACNA2D3 / Fold change vs veh, CACNA2D3 / RFU, DTX4 / Fold change vs veh, DTX4 / RFU, TFCP2 / Fold change vs veh, TFCP2 / RFU, GMCL1 /// GMCL1P1 / Fold change vs veh, GMCL1 /// GMCL1P1 / RFU, AEBP2 / Fold change vs veh, AEBP2 / RFU, SNHG1 /// SNORD22 /// SNORD25 /// SNORD26 /// SNORD27 /// SNORD28 /// SNORD29 /// SNORD31 / Fold change vs veh, SNHG1 /// SNORD22 /// SNORD25 /// SNORD26 /// SNORD27 /// SNORD28 /// SNORD29 /// SNORD31 / Fold change (Aza/veh), C12orf56 (ProbeSet 11735607_a_at) / Fold change (ACY-1035/veh), C12orf56 (ProbeSet 11735607_a_at) / Fold change (Aza/veh), FGFR1OP (ProbeSet 11751329_s_at) / Fold change (ACY-1035/veh), FGFR1OP (ProbeSet 11751329_s_at) / Fold change (Aza/veh), VPS36 (ProbeSet 11739960_a_at) / Fold change (ACY-1035/veh), VPS36 (ProbeSet 11739960_a_at) / RFU SYPL1 (11715823_x_at) / Fold change /veh SYPL1 (11715823_x_at) / RFU IGFBP7 (11715501_s_at) / Fold change /veh IGFBP7 (11715501_s_at) / RFU REEP3 (11722064_at) / Fold change /veh REEP3 (11722064_at) / RFU IGLL1 (11728026_x_at) / Fold change /veh IGLL1 (11728026_x_at): dose or concentration left out as unconfirmed. As to conditions: ProbeSet 11741311_a_at; LIST B.

Turning to `Nc1ccc(-c2cccs2)cc1NC(=O)c1ccc2c(c1)cc(C1CC1)n2CCN1CCOCC1` [ACY-1035], the “Fold change vs veh, ZNF655” value turned out to be 0.99.
